As a reminder, the IC50 is the midpoint of a concentration-inhibition curve. A high value points to weaker potency.

Experiment [1] deals with T1, mutEGFR (D770_N771insSVD) (Homo sapiens, UniProt P00533, DUP768-770).
T1 construct: GST-EGFR #3 (SVD between D770 and N771); made in house; host or cells: Sf9 insect cells (baculovirus)
Nature of the experiment: Exon20-Mutant-EGFR (D770_N771insSVD) kinase assay (TR-FRET). In kind it is biochemical.

Experiment [2] concerns the target T2, mutEGFR (D770_N771insNPG, T790) (Homo sapiens, UniProt P00533, INS770NPG/T790M).
T2 construct: exact insNPG construct not described; in-house EGFR proteins were N-terminal GST fusions from baculovirus/insect cells (borders R669-A1210 given only for WT, insSVD, insASV)
The experiment in a line: mutEGFR (D770_N771insNPG, T790) kinase assay. The format is biochemical. The settings on record: Table 2a, D770_N771insNPG. From the text:
The different EGFR proteins used in the biochemical kinase activity inhibition assays were generated inhouse by expression in insect cells using Baculo Virus system and subsequent purification as described in the following paragraphs.
The cDNAs encoding the various protein sequences from human EGFR human (P00533) were optimized for expression in eukaryotic cells and synthesized by the GeneArt Technology at Life Technologies.

For the next experiment, the system named is BA/F3 (insSVD) cells. Nature of the experiment: Ba/F3-EGFR-insSVD cell survival assay (Cell Titer-Glo). The format is cell-based. The gist of the method: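 CellTiter-Glo luminescence read after 48 h compound exposure at 37° C. Cells: IL-3-independent Ba/F3 lines transduced with EGFR-insSVD or EGFR-insSVD T790M, maintained on 10 ng/ml EGF and seeded at 4000 per well.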

Where [3] appears, read: mutEGFR (D770_N771insSVD) kinase assay IC50, Table 2a, D770_N771insSVD, 2 mM ATP.
Setting [4] is: Mus musculus, BaF3, 48 h, Table 3a, cell survival, Cell Titer-Glo, with 10 ng/ml EGF, without IL-3.

T1 sequence (P00533 with tags, fused parts or gaps DUP768-770): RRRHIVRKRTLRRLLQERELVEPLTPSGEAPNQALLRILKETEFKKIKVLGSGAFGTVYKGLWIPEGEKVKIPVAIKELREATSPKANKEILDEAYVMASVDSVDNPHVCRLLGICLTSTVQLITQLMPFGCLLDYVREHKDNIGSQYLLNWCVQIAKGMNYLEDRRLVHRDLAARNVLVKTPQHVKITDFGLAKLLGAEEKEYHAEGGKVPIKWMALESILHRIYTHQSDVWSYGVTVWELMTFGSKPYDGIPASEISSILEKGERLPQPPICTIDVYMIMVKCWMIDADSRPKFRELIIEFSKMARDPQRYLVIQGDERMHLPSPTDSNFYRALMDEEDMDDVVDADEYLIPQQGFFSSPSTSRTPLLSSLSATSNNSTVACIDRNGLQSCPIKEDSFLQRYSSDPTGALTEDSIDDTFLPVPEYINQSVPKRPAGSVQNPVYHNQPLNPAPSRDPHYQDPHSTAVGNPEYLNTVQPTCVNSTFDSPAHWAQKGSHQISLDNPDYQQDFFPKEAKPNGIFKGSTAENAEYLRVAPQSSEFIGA
T2 sequence (P00533 with tags, fused parts or gaps INS770NPG/T790M limits assumed): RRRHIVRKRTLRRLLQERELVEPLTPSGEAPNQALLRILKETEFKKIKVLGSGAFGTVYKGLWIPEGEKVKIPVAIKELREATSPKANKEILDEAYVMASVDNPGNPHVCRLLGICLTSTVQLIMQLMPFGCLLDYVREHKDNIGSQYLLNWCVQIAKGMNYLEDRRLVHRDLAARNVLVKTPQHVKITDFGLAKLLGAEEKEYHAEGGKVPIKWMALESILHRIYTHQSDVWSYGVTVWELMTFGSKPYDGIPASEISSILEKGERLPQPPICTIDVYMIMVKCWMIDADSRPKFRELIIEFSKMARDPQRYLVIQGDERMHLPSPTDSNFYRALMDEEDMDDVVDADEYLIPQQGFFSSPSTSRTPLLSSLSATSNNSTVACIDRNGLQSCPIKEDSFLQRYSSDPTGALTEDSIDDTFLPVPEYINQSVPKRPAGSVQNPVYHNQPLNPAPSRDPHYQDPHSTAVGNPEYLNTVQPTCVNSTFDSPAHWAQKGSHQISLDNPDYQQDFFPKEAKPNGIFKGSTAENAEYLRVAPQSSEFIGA

On to `C=CC(=O)N1CCn2nc(-c3ccc(Cl)cc3F)c(-c3ccnc4[nH]cc(F)c34)c2C1` [Example 52, 1-[2-(4-chloro-2-fluorophenyl)-3-(3-fluoro-1H-pyrolo[2,3-b]pyridin-4-yl)-6,7-dihydropyrazolo[1,5-a]pyrazin-5(4H)-yl]prop-2-en-1-one], for which the 50% inhibitory concentration (IC50) in experiment [1] (setting [3]) is 6.05 nM; in experiment [2], 22.7 nM; in the experiment on BA/F3 (insSVD) cells (setting [4]), 35.5 nM.
As to `O=C(/C=C/CN1CCOCC1)N1CCn2nc(-c3ccc(F)cc3)c(-c3ccncc3)c2C1` [Example 63, (2E)-1-[2-(4-fluorophenyl)-3-(pyridin-4-yl)-6,7-dihydropyrazolo[1,5-a]pyrazin-5(4H)-yl]-4-(morpholin-4-yl) but-2-en-1-one], the half-inhibitory concentration (IC50) was 2.64 nM in experiment [1] (setting [3]), 9 nM in experiment [2] and 221 nM in the experiment on BA/F3 (insSVD) cells (setting [4]).
For `C=CC(=O)N1Cc2c(-c3ccncc3)c(-c3ccc(Cl)cc3)nn2C[C@@H]1C` [Example 122, 1-[(6S)-2-(4-chlorophenyl)-6-methyl-3-(pyridin-4-yl)-6,7-dihydropyrazolo[1,5-a]pyrazin-5(4H)-yl]prop-2-en-1-one] the same measures were 0.369 nM, 0.803 nM and 13.8 nM.
With `CC1c2c(-c3ccnc4[nH]ccc34)c(-c3ccc(F)cc3)nn2CCN1C(=O)/C=C/CN(C)C` (single isomer, unassigned; isomer 2) [Example 267, (E)-4-(dimethylamino)-1-(2-(4-fluorophenyl)-4-methyl-3-(1H-pyrrolo[2,3-b]pyridin-4-yl)-6,7-dihydropyrazolo[1,5-a]pyrazin-5(4H)-yl) but-2-en-1-one (isomer 2)], the half-maximal inhibitory concentration (IC50) in experiment [1] (setting [3]) was 24.9 nM; in experiment [2], 21.7 nM; in the experiment with BA/F3 (insSVD) cells (Table 3a, cell survival, Cell Titer-Glo, with 10 ng/ml EGF, without IL-3, 48 h), 257 nM.
Consider `C=CC(=O)N1CCn2nc(-c3ccccc3F)c(-c3ccncc3)c2C1` [Example 136, 1-[2-(2-fluorophenyl)-3-(pyridin-4-yl)-6,7-dihydropyrazolo[1,5-a]pyrazin-5(4H)-yl]prop-2-en-1-one], for which the half-maximal inhibitory concentration (IC50) in experiment [1] (setting [3]) is 1.1 nM; in experiment [2], 4.74 nM; in the experiment with BA/F3 (insSVD) cells (setting [4]) it was 68.3 nM.
Taken in the same sequence, the figures for `C=CC(=O)N1CCn2nc(-c3ccc(SC(F)(F)F)cc3)c(-c3ccncc3)c2C1` [Example 143, 1-[3-(pyridin-4-yl)-2-{4-[(trifluoromethyl)sulfanyl]phenyl}-6,7-dihydropyrazolo[1,5-a]pyrazin-5(4H)-yl]prop-2-en-1-one] were 11.5 nM, 71.9 nM and 673 nM.
On to `C=CC(=O)N1CCn2nc(-c3ccc(F)cc3)c(-c3ccnc4[nH]cc(C)c34)c2C1` [Example 173, 1-[2-(4-fluorophenyl)-3-(3-methyl-1H-pyrrolo[2,3-b]pyridin-4-yl)-6,7-dihydropyrazolo[1,5-a]pyrazin-5(4H)-yl]prop-2-en-1-one], for which the IC50 in experiment [1] (setting [3]) was determined as 157 nM; in experiment [2] it was 25.5 nM; with BA/F3 (insSVD) cells (setting [4]), 62.8 nM.
In the case of `Cc1cc(-c2nn3c(c2-c2ccncc2)CN(C(=O)/C=C/CN(C)C)CC3(C)C)ccc1Cl` [Example 214, (2E)-1-[2-(4-chloro-3-methylphenyl)-7,7-dimethyl-3-(pyridin-4-yl)-6,7-dihydropyrazolo[1,5-a]pyrazin-5(4H)-yl]-4-(dimethylamino)but-2-en-1-one], the IC50 came out at 0.272 nM in experiment [1] (setting [3]), 0.654 nM in experiment [2] and 69 nM in the experiment on BA/F3 (insSVD) cells (setting [4]).
For `O=C(/C=C/CN1CCCC1)N1CCn2nc(-c3ccc(F)cc3)c(-c3ccncc3)c2C1` [Example 79, (2E)-1-[2-(4-fluorophenyl)-3-(pyridin-4-yl)-6,7-dihydropyrazolo[1,5-a]pyrazin-5(4H)-yl]-4-(pyrrolidin-1-yl) but-2-en-1-one] the same measures were 1.47 nM, 2.51 nM and 62.9 nM.
For `CN(C)C/C=C/C(=O)N1CCn2nc(-c3ccc(OC(F)F)cc3)c(-c3ccncc3)c2C1` [Example 144, (2E)-1-{2-[4-(difluoromethoxy)phenyl]-3-(pyridin-4-yl)-6,7-dihydropyrazolo[1,5-a]pyrazin-5(4H)-yl}-4-(dimethylamino)but-2-en-1-one], the concentration for half-maximal inhibition (IC50) in experiment [1] (setting [3]) stood at 8.69 nM; in experiment [2], 31 nM; in the experiment with BA/F3 (insSVD) cells (setting [4]) it was 1490 nM.
For `CC(C)(C)OC(=O)N1CCCC1C#CC(=O)N1CCn2nc(-c3ccc(F)cc3)c(-c3ccncc3)c2C1` (racemic) [Example 87, tert-butyl(2RS)-2-(3-[2-(4-fluorophenyl)-3-(pyridin-4-yl)-6,7-dihydropyrazolo[1,5-a]pyrazin-5(4H)-yl]-3-oxoprop-1-yn-1-yl) pyrrolidine-1-carboxylate] the same measures were 53.1 nM, 82.5 nM and 1060 nM.
For `C=CC(=O)N1CCn2nc(-c3ccc(Cl)cc3)c(-c3ccnc4[nH]cc(C)c34)c2C1` [Example 175, 1-[2-(4-chlorophenyl)-3-(3-methyl-1H-pyrrolo[2,3-b]pyridin-4-yl)-6,7-dihydropyrazolo[1,5-a]pyrazin-5(4H)-yl]prop-2-en-1-one] the same measures were 97.6 nM, 80.4 nM and 63.5 nM.
As to `C=CC(=O)N1CCn2nc(-c3ccc(C(F)(F)F)cc3)c(-c3ccnc4[nH]cc(C)c34)c2C1C` (single isomer, unassigned; isomer 1) [Example 259, 1-(4-methyl-3-(3-methyl-1H-pyrrolo[2,3-b]pyridin-4-yl)-2-(4-(trifluoromethyl)phenyl)-6,7-dihydropyrazolo[1,5-a]pyrazin-5(4H)-yl) prop-2-en-1-one (isomer 1)], the 50% inhibitory concentration (IC50) turned out to be 683 nM in experiment [1] (setting [3]), 13300 nM in experiment [2] and 296 nM in the experiment with BA/F3 (insSVD) cells (setting [4]).
Taken in the same sequence, the figures for `CN(C)C/C=C/C(=O)N1CCn2nc(-c3ccc4sccc4c3)c(-c3ccncc3)c2C1` [Example 196, (2E)-1-[2-(1-benzothiophen-5-yl)-3-(pyridin-4-yl)-6,7-dihydropyrazolo[1,5-a]pyrazin-5(4H)-yl]-4-(dimethylamino)but-2-en-1-one] were 0.183 nM, 0.421 nM and 40.4 nM.
Taken in the same sequence, the figures for `C=CC(=O)N1Cc2c(-c3ccncc3)c(-c3ccc(Cl)cc3)nn2C[C@H]1C` [Example 123, 1-[(6R)-2-(4-chlorophenyl)-6-methyl-3-(pyridin-4-yl)-6,7-dihydropyrazolo[1,5-a]pyrazin-5(4H)-yl]prop-2-en-1-one] were 1.19 nM, 1.95 nM and 23.7 nM.
As to `CNC(=O)CC1CN(C(=O)/C=C/CN(C)C)Cc2c(-c3ccncc3)c(-c3ccc(F)cc3)nn21` (racemic) [Example 221, 2-[(7RS)-5-[(2E)-4-(dimethylamino)but-2-enoyl]-2-(4-fluorophenyl)-3-(pyridin-4-yl)-4,5,6,7-tetrahydropyrazolo[1,5-a]pyrazin-7-yl]-N-methylacetamide], the half-inhibitory concentration (IC50) in experiment [1] (setting [3]) came out at 3.69 nM; in experiment [2], 15.3 nM; with BA/F3 (insSVD) cells (setting [4]) it was 2510 nM.
As for `C=CC(=O)N1CCn2nc(-c3ccc(F)cc3)c(-c3ccnc4[nH]ccc34)c2C1` [Example 22, 1-[2-(4-fluorophenyl)-3-(1H-pyrrolo[2,3-b]pyridin-4-yl)-6,7-dihydropyrazolo[1,5-a]pyrazin-5(4H)-yl]prop-2-en-1-one], the half-maximal inhibitory concentration (IC50) in experiment [1] (setting [3]) turned out to be 5.12 nM; in experiment [1] (mutEGFR (D770_N771insSVD) kinase assay IC50, Table 2b (from US Priority Patent Application), mutEGFR D770_N771insSVD), 5.12 nM; in experiment [2], 3.34 nM; in the experiment with BA/F3 (insSVD) cells (setting [4]), 62 nM; with BA/F3 (insSVD) cells (Mus musculus, BaF3, 48 h, Table 3b, Ba/F3 EGFR-insSVD), 62 nM.
As to `C=CC(=O)N1Cc2c(-c3ccncc3)c(-c3ccc(Cl)cc3)nn2C(C)(C)C1` [Example 209, 1-[2-(4-chlorophenyl)-7,7-dimethyl-3-(pyridin-4-yl)-6,7-dihydropyrazolo[1,5-a]pyrazin-5(4H)-yl]prop-2-en-1-one], the figures for the half-maximal inhibitory concentration (IC50) (in experiment [1] (setting [3]); in experiment [2]; in the experiment with BA/F3 (insSVD) cells (setting [4])) were 0.226 nM, 0.694 nM and 8.15 nM, respectively.
On to `CCOc1ccc(-c2nn3c(c2-c2ccncc2)CN(C(=O)/C=C/CN(C)C)CC3)cc1` [Example 147, (2E)-4-(dimethylamino)-1-[2-(4-ethoxyphenyl)-3-(pyridin-4-yl)-6,7-dihydropyrazolo[1,5-a]pyrazin-5(4H)-yl]but-2-en-1-one], for which the IC50 came to 36 nM in experiment [1] (setting [3]), 201 nM in experiment [2] and 2940 nM with BA/F3 (insSVD) cells (setting [4]).
For `C=CC(=O)N1Cc2c(-c3ccncc3)c(-c3ccc(Cl)c(C)c3)nn2C(C)(C)C1` [Example 208, 1-[2-(4-chloro-3-methylphenyl)-7,7-dimethyl-3-(pyridin-4-yl)-6,7-dihydropyrazolo[1,5-a]pyrazin-5(4H)-yl]prop-2-en-1-one] the same measures were 0.14 nM, 0.365 nM and 15.8 nM.
On to `C=CC(=O)N1Cc2c(-c3ccncc3)c(-c3ccc4cc(F)sc4c3)nn2CC1C` (racemic) [Example 229, 1-[(RS)-2-(2-fluoro-1-benzothiophen-6-yl)-6-methyl-3-(pyridin-4-yl)-6,7-dihydropyrazolo[1,5-a]pyrazin-5(4H)-yl]prop-2-en-1-one], for which the results for the IC50 (in experiment [1] (setting [3]); in experiment [2]; with BA/F3 (insSVD) cells (setting [4])) were 0.188 nM, 0.351 nM and 17.1 nM, respectively.

For the origin of these results see patent US20260365653A1, “IRREVERSIBLE MUTEGFR INHIBITORS” (Bayer Aktiengesellschaft, priority 2022, published 2026).
